From patent US20240174636A1, “NOVEL INDOLEAMINE 2,3-DIOXYGENASE INHIBITORS, PROCESSES FOR THE PREPARATION THEREOF AND PHARMACEUTICAL COMPOSITIONS COMPRISING THE SAME” (YUHAN CORPORATION, priority 2021, published 2024)

Each compound was assayed against IDO1 (Homo sapiens, UniProt P14902) (assay: IDO1 cellular activity using HEK293 cells transfected with IDO1 expression vector). Conditions: 24 h compound incubation, read-out: Inhibitory Activity (IC50).
Assay type: cell-based
Design: host or cells: HEK293 cells, transient transfection with Lipofectamine 2000
Experimental: HEK293 cells were seeded at a density of 30000 cells/well in 100 μl of a culture medium (DMEM supplemented with 10% FBS, penicillin 100 U/ml, and streptomycin 100 μg/ml) in a tissue culture-treated 96 well plate. The cells were cultured in a 5% carbon dioxide incubator for 24 hours, transfected with the IDO1 expression vector (component A in IDO1 cell-based assay kit, catalog #72031, BPS Bioscience) using Lipofectamine 2000 (Life Technologies, #11668027), and then cultured for 24 hours in a 5% carbon dioxide incubator to express the IDO protein.
The activities were measured using a IDO1 cell-based assay kit (catalog #72031, BPS Bioscience). Specifically, an assay medium was prepared by diluting IDO1 assay medium substrate 1 and IDO1 assay medium supplement 2 in a culture medium at a ratio of 1:100, respectively. The test compounds were diluted to the predetermined concentrations in the fresh assay medium. After removing the culture medium using a multi-pipet, 200 μl of each assay medium containing the test material was added into respective well, followed by incubating in a 5% carbon dioxide incubator for 24 hours. The next day, 140 μl of culture medium from each well was transferred to a new 96-well plate. 10 μl of 6.1N trichloroacetic acid was added into each well, which was then cultured in a 50° C. incubator for 30 minutes. The plate was centrifuged at 2500 rpm for 10 minutes to settle any sediment. A detection reagent solution was prepared by diluting the detection reagent (component D in IDO1 cell-based assay kit, catalog #72031 BPS Bioscience) 50-fold in acetic acid. 100 μl of the supernatant taken from the centrifuged plate was transferred to a new transparent 96-well plate and then 100 μl of the detection reagent solution was added thereto. After reacting at room temperature for 10 minutes, absorbance was measured at 480 nm wavelength. For analysis of the results, the absorbance (At) of the well containing HEK293 cells in which IDO protein was expressed without treatment of an inhibitor was 100%; and the absorbance (Ab) of the well containing HEK293 cells in which IDO protein was not expressed was 0. The % absorbance was calculated according to the following equation: % Absorbance=(A−Ab)/(At−Ab), A=absorbance of the well treated with the test compound.

Chain of IDO1 (P14902 whole entry): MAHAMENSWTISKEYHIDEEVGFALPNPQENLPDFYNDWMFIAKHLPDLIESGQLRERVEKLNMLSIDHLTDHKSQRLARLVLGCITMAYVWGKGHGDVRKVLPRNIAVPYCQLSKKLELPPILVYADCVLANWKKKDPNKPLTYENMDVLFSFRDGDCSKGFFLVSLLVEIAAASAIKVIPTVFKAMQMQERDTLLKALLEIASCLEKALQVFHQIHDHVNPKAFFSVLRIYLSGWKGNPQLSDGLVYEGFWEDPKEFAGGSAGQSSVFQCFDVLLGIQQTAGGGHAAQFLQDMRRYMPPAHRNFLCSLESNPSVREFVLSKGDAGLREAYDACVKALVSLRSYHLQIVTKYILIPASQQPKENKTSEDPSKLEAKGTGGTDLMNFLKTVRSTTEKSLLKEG

SMILES	IC50 [nM]
C[C@H](C[C@H]1CC[C@H](c2ccnc3ccc(F)cc32)CC1)Nc1nc(Cl)nc2ccc(F)cc12 [Example 48, 2-chloro-6-fluoro-N-((R)-1-((trans)-4-(6-fluoroquinolin-4-yl)cyclohexyl)propan-2-yl)quinazolin-4-amine]	45.4
COc1ccc2nc(N[C@H](C)C[C@H]3CC[C@@H](c4ccnc5ccc(F)cc54)CC3)oc2c1F [Example 42, 7-fluoro-N-((R)-1-((cis)-4-(6-fluoroquinolin-4-yl)cyclohexyl)propan-2-yl)-6-methoxybenzo[d]oxazol-2-amine]	6.6
C[C@H](C[C@H]1CC[C@@H](c2ccnc3ccc(F)cc32)CC1)Nc1nc2ccc(OCCF)cc2o1 [Example 45, 6-(2-fluoroethoxy)-N-((R)-1-((cis)-4-(6-fluoroquinolin-4-yl)cyclohexyl)propan-2-yl)benzo[d]oxazol-2-amine]	5.5
C[C@H](C[C@H]1CC[C@@H](c2ccnc3ccc(F)cc32)CC1)Nc1nc2cccc(F)c2o1 [Example 37, 7-fluoro-N-((R)-1-((cis)-4-(6-fluoroquinolin-4-yl)cyclohexyl)propan-2-yl)benzo[d]oxazol-2-amine]	7.6
COc1cccc2c(N[C@H](C)C[C@H]3CC[C@H](c4ccnc5ccc(F)cc54)CC3)nc(Cl)nc12 [Example 52, 2-chloro-N-((R)-1-((trans)-4-(6-fluoroquinolin-4-yl)cyclohexyl)propan-2-yl)-8-methoxyquinazolin-4-amine]	260
C[C@H](C[C@H]1CC[C@@H](c2ccnc3ccc(F)cc32)CC1)Nc1nc(Cl)nc2cc(Cl)ccc12 [Example 40, 2,7-dichloro-N-((R)-1-((cis)-4-(6-fluoroquinolin-4-yl)cyclohexyl)propan-2-yl)quinazolin-4-amine]	21.9
C[C@H](C[C@H]1CC[C@@H](c2ccnc3ccc(F)cc32)CC1)Nc1nccc2cc(Cl)ccc12 [Example 34, 6-chloro-N-((R)-1-((cis)-4-(6-fluoroquinolin-4-yl)cyclohexyl)propan-2-yl)isoquinolin-1-amine]	68.6
C[C@H](C[C@H]1CC[C@@H](c2ccnc3ccc(F)cc32)CC1)Nc1nncc2cc(Cl)ccc12 [Example 39, 6-chloro-N-((R)-1-((cis)-4-(6-fluoroquinolin-4-yl)cyclohexyl)propan-2-yl)phthalazin-1-amine]	9.7
C[C@H](C[C@H]1CC[C@@H](c2ccnc3ccc(F)cc32)CC1)Nc1nccc2cc(F)ccc12 [Example 33, 6-fluoro-N-((R)-1-((cis)-4-(6-fluoroquinolin-4-yl)cyclohexyl)propan-2-yl)isoquinolin-1-amine]	116
C[C@H](C[C@H]1CC[C@@H](c2ccnc3ccc(F)cc32)CC1)Nc1nc2ccc(Cl)c(Cl)c2o1 [Example 46, 6,7-dichloro-N-((R)-1-((cis)-4-(6-fluoroquinolin-4-yl)cyclohexyl)propan-2-yl)benzo[d]oxazol-2-amine]	17.2
C[C@H](C[C@H]1CC[C@@H](c2ccnc3ccc(F)cc32)CC1)Nc1nc2c(Cl)cccc2s1 [Example 35, 4-chloro-N-((R)-1-((cis)-4-(6-fluoroquinolin-4-yl)cyclohexyl)propan-2-yl)benzo[d]thiazol-2-amine]	105
C[C@H](C[C@H]1CC[C@@H](c2ccnc3ccc(F)cc32)CC1)Nc1nc2ccc(F)c(F)c2o1 [Example 47, 6,7-difluoro-N-((R)-1-((cis)-4-(6-fluoroquinolin-4-yl)cyclohexyl)propan-2-yl)benzo[d]oxazol-2-amine]	5.5
C[C@H](C[C@H]1CC[C@H](c2ccnc3ccc(F)cc32)CC1)Nc1nc(Cl)nc2c(Cl)cccc12 [Example 51, 2,8-dichloro-N-((R)-1-((trans)-4-(6-fluoroquinolin-4-yl)cyclohexyl)propan-2-yl)quinazolin-4-amine]	124
C[C@H](C[C@H]1CC[C@@H](c2ccnc3ccc(F)cc32)CC1)Nc1nc2cc(F)c(Cl)cc2o1 [Example 43, 6-chloro-5-fluoro-N-((R)-1-((cis)-4-(6-fluoroquinolin-4-yl)cyclohexyl)propan-2-yl)benzo[d]oxazol-2-amine]	6.3
C[C@H](C[C@H]1CC[C@H](c2ccnc3ccc(F)cc32)CC1)Nc1nc(Cl)nc2cc(Cl)ccc12 [Example 41, 2,7-dichloro-N-((R)-1-((trans)-4-(6-fluoroquinolin-4-yl)cyclohexyl)propan-2-yl)quinazolin-4-amine]	7.6

Now from value to compound:

IC50 [nM]	SMILES
30.8	C[C@H](C[C@H]1CC[C@@H](c2ccnc3ccc(F)cc32)CC1)Nc1nc(Cl)nc2cc(C(F)(F)F)ccc12 [Example 66, 2-chloro-N-((R)-1-((cis)-4-(6-fluoroquinolin-4-yl)cyclohexyl)propan-2-yl)-7-(trifluoromethyl)quinazolin-4-amine]
25.2	Cc1ccc2c(N[C@H](C)C[C@H]3CC[C@H](c4ccnc5ccc(F)cc54)CC3)nc(Cl)nc2c1 [Example 57, 2-chloro-N-((R)-1-((trans)-4-(6-fluoroquinolin-4-yl)cyclohexyl)propan-2-yl)-7-methylquinazolin-4-amine]
28.2	C[C@H](C[C@H]1CC[C@H](c2ccnc3ccc(F)cc32)CC1)Nc1nc(Cl)nc2cc(C#N)ccc12 [Example 55, 2-chloro-4-(((R)-1-((trans)-4-(6-fluoroquinolin-4-yl)cyclohexyl)propan-2-yl)amino)quinazolin-7-carbonitrile]
38.8	C[C@H](C[C@H]1CC[C@@H](c2ccnc3ccc(F)cc32)CC1)Nc1nc(Cl)nc2cc(Br)ccc12 [Example 64, 7-bromo-2-chloro-N-((R)-1-((cis)-4-(6-fluoroquinolin-4-yl)cyclohexyl)propan-2-yl)quinazolin-4-amine]
19.3	C[C@H](C[C@H]1CC[C@H](c2ccnc3ccc(F)cc32)CC1)Nc1nc(Cl)nc2cc(Br)ccc12 [Example 56, 7-bromo-2-chloro-N-((R)-1-((trans)-4-(6-fluoroquinolin-4-yl)cyclohexyl)propan-2-yl)quinazolin-4-amine]
47.5	COc1ccc2c(N[C@H](C)C[C@H]3CC[C@@H](c4ccnc5ccc(F)cc54)CC3)nc(Cl)nc2c1 [Example 67, 2-chloro-N-((R)-1-((cis)-4-(6-fluoroquinolin-4-yl)cyclohexyl)propan-2-yl)-7-methoxyquinazolin-4-amine]
27.5	C[C@H](C[C@H]1CC[C@@H](c2ccnc3ccc(F)cc32)CC1)Nc1nc(Cl)nc2cc(C#N)ccc12 [Example 63, 2-chloro-4-(((R)-1-((cis)-4-(6-fluoroquinolin-4-yl)cyclohexyl)propan-2-yl)amino)quinazolin-7-carbonitrile]
406	C[C@H](C[C@H]1CC[C@@H](c2ccnc3ccc(F)cc32)CC1)Nc1nc(Cl)nc2ccc(Cl)cc12 [Example 61, 2,6-dichloro-N-((R)-1-((cis)-4-(6-fluoroquinolin-4-yl)cyclohexyl)propan-2-yl)quinazolin-4-amine]
114	COc1cccc2c(N[C@H](C)C[C@H]3CC[C@@H](c4ccnc5ccc(F)cc54)CC3)nc(Cl)nc12 [Example 70, 2-chloro-N-((R)-1-((cis)-4-(6-fluoroquinolin-4-yl)cyclohexyl)propan-2-yl)-8-methoxyquinazolin-4-amine]
50.5	C[C@H](C[C@H]1CC[C@@H](c2ccnc3ccc(F)cc32)CC1)Nc1nc(Cl)nc2c(Cl)cccc12 [Example 68, 2,8-dichloro-N-((R)-1-((cis)-4-(6-fluoroquinolin-4-yl)cyclohexyl)propan-2-yl)quinazolin-4-amine]
16.8	C[C@H](C[C@H]1CC[C@H](c2ccnc3ccc(F)cc32)CC1)Nc1nc(Cl)nc2cc(C(F)(F)F)ccc12 [Example 58, 2-chloro-N-((R)-1-((trans)-4-(6-fluoroquinolin-4-yl)cyclohexyl)propan-2-yl)-7-(trifluoromethyl)quinazolin-4-amine]
61.1	C[C@H](C[C@H]1CC[C@@H](c2ccnc3ccc(F)cc32)CC1)Nc1nc(Cl)nc2ccc(F)cc12 [Example 60, 2-chloro-6-fluoro-N-((R)-1-((cis)-4-(6-fluoroquinolin-4-yl)cyclohexyl)propan-2-yl)quinazolin-4-amine]
56.6	C[C@H](C[C@H]1CC[C@@H](c2ccnc3ccc(F)cc32)CC1)Nc1nc(Cl)nc2cc(F)ccc12 [Example 62, 2-chloro-7-fluoro-N-((R)-1-((cis)-4-(6-fluoroquinolin-4-yl)cyclohexyl)propan-2-yl)quinazolin-4-amine]
19.4	COc1ccc2c(N[C@H](C)C[C@H]3CC[C@H](c4ccnc5ccc(F)cc54)CC3)nc(Cl)nc2c1 [Example 59, 2-chloro-N-((R)-1-((trans)-4-(6-fluoroquinolin-4-yl)cyclohexyl)propan-2-yl)-7-methoxyquinazolin-4-amine]
